Series [1] is described as follows: Metabolic stability in human liver microsomes assessed as half life at 1 uM preincubated for 1 hr followed by NADPH addition and measured upto 60 mins by LC-MS/MS analysis. Format: ADME, Microsome. Conditions: time < 120 min.
Series [2] concerns Platelet. The series is described as follows: Inhibition of platelet aggregation in human platelet rich plasma preincubated for 5 mins followed by aggregation inducer addition and measured after 5 mins by light transmission aggregometry. Format: functional, cell-based.
The subject of series [3] is Platelet. Nature of the series: Inhibition of platelet aggregation in human platelet rich plasma at 20 uM preincubated for 5 mins followed by aggregation inducer addition and measured after 5 mins by light transmission aggregometry relative to control. To be noted: 10 min. Format: functional.
The nature of series [4]: Oral bioavailability in Sprague-Dawley rat at 50 mg/kg. The format is ADME, organism-based. Conditions: in vivo.
Series [5] concerns the target T1, Proteinase-activated receptor 4 (Homo sapiens) (UniProt Q96RI0).
T1 sequence (whole entry): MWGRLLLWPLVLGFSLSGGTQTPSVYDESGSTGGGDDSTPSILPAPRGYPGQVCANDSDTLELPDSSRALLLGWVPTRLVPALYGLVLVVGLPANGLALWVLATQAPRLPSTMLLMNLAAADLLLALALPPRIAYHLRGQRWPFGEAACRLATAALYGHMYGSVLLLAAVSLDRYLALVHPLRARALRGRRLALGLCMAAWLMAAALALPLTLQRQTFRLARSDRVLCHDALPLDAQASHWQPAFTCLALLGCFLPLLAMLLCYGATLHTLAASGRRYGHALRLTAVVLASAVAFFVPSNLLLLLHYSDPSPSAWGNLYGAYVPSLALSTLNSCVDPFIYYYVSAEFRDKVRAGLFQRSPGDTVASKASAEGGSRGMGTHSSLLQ
Nature of the series: Antagonist activity at PAR4 in human filtered plasma assessed as inhibition of PAR4-activated peptide AYPGPK-NH2 induced platelet aggregation at 100 nM preincubated for 5 mins followed by aggregation inducer addition and measured after 5 mins by light transmission aggregometry relative to control. To be noted: filed as antagonist, time 10.0 min. The format is functional, cell-free.

Series [6] is described as follows: Toxicity in C57BL/6J mouse assessed as prolongation of bleeding time at 3 to 12 mg/kg, po administered via oral gavage and measured after 2 hrs. Format: organism-based. To be noted: in vivo, dose 3-12 mg/kg.

SMILES strings stand for the structures. Calls of active or inactive are those of the source.

What is called half-life is the time needed for the level to fall by half in the phase considered. One may read the IC50 as the point on the concentration scale where inhibition reaches its midpoint. Higher therefore signals lower potency. Broadly, the inhibition is the drop in the measured response relative to a control, in per cent. Broadly, the bioavailability is dose-corrected exposure relative to a reference, in per cent. Low readings indicate poor availability, high ones good availability. Turning to `COc1nn2cc(-c3cc4c(F)cc5c(c4o3)OCCO5)nc2s1`, the half-life at 1 µM in series [1] was 34.3 min. In the series with Platelet [2], this compound had an IC50 of 9.1 nM. Moreover, the inhibition at 20 µM with Platelet [3] came to 74.8%. This compound also returned a bioavailability in series [4] of 4.9%.
As for `COc1nn2cc(-c3cc4c(C5CC5)cc5c(c4o3)OCCO5)nc2s1`, inhibition in the series on Platelet [2] was half-maximal at 18.7 nM (IC50). The inhibition at 20 µM in the series with Platelet [3] was 75.6%.
`CCOC(=O)N[C@@H]1CC[C@@H]2[C@@H](C1)C[C@H]1C(=O)O[C@H](C)[C@H]1[C@H]2/C=C/c1ccc(-c2cccc(F)c2)cn1`: the outcome in series [5] was Active.
As for `FC(F)(F)c1nn2cc(-c3cc4ccc5c(c4o3)OCCO5)nc2s1`, in the series on Platelet [3], the inhibition at 20 µM is 3.89%.
On the same count and under the same terms, for `c1cnn2cc(-c3cc4ccc5c(c4o3)OCCO5)nc2n1` the value was 2.08%; for `COc1nn2cc(-c3cc4c(OCc5ccccc5)cc5c(c4o3)OCCO5)nc2s1`, 7.4%; for `COc1nn2cc(-c3cc4c(-c5ccc(C)cc5)cc5c(c4o3)OCCO5)nc2s1`, -0.13%.
The same measure, in the same setting: next, `COc1nn2cc(-c3cc4c(C(F)(F)F)cc5c(c4o3)OCCO5)nc2s1`: 5.75%.
Consider `COc1nn2cc(-c3cc4ccc5c(c4o3)CCO5)nc2s1`, for which the IC50 in the series on Platelet [2] came to 17.8 nM. In the series on Platelet [3], the inhibition at 20 µM came out at 83.7%.
As to `COc1nn2cc(-c3cc4ccc5c(c4o3)CCCC5)nc2s1`, the inhibition at 20 µM in the series with Platelet [3] came to 8.02%.
Regarding `COc1nn2cc(-c3cc4c(Br)cc5c(c4o3)OCCO5)nc2s1`, the half-life at 1 µM in series [1] was 59.7 min. Moreover, the IC50 in the series with Platelet [2] came out at 18.4 nM. The inhibition at 20 µM in the series with Platelet [3] was 83.1%.
On to `COc1nn2cc(-c3cc4c(OCC(=O)N5CCN(C(C)=O)CC5)cc5c(c4o3)OCCO5)nc2s1`, for which, in the series on Platelet [3], the inhibition at 20 µM was 15.1%.
Take `COC(=O)[C@H](c1ccccc1Cl)N1CCc2sccc2C1` [CLOPIDOGREL]: the Activity result in series [6] is reported as “Toxic”.
For the compound `COc1nn2cc(-c3cc4ccc5ccccc5c4o3)nc2s1`, in the series with Platelet [3], the inhibition at 20 µM was determined as 8.27%.
On the same count and under the same terms, next, `COc1nn2cc(-c3cc4ccc5c(c4o3)OCCCCO5)nc2s1`: 44.8%.
Still for that read-out and setting: for `COc1nn2cc(-c3cc4c(N5CCOCC5)cc5c(c4o3)OCCO5)nc2s1` the value was 37.1%; for `COc1nn2cc(-c3cc4cc5c(cc4o3)OCCO5)nc2s1`, 88.4%; for `COc1nn2cc(-c3cc4c(OCc5csc(-c6ccc(C(F)(F)F)cc6)n5)cc5c(c4o3)OCCO5)nc2s1`, 6.57%.
Still for that read-out and setting: next, `COc1nn2cc(-c3cc4c(Cl)cc5c(c4o3)OCCO5)nc2s1`: 43.2%.
Compound `COc1nn2cc(-c3cc4c(OCc5csc(N6CCSCC6)n5)cc5c(c4o3)OCCO5)nc2s1` gave an IC50 in the series on Platelet [2] of 9.2 nM. In addition, the inhibition at 20 µM in the series on Platelet [3] was 82.1%.
As for `COc1nn2cc(-c3cc4c(OCCN5CCOCC5)cc5c(c4o3)OCCO5)nc2s1`, the half-life at 1 µM in series [1] is 33 min. In addition, the inhibition at 20 µM in the series with Platelet [3] amounted to 78.9%.
Turning to `COc1nn2cc(-c3cc4ccc5c(c4o3)CCCO5)nc2s1`, the inhibition at 20 µM with Platelet [3] worked out at 1.14%.
On to `COc1nn2cc(-c3cc4ccc5c(c4o3)OCO5)nc2s1`, for which the half-life at 1 µM in series [1] is 16.2 min. The compound also came in with an IC50 with Platelet [2] of 18.8 nM. Further, the inhibition at 20 µM in the series with Platelet [3] is 77.5%.
Regarding `CSc1nn2cc(-c3cc4ccccc4o3)nc2s1`, the half-life at 1 µM in series [1] worked out at 11.1 min. For the same compound, the inhibition at 20 µM with Platelet [3] was found to be 81%.
For the compound `[2H]c1cc2c(c3oc(-c4cn5nc(OC)sc5n4)cc13)OCCO2`, the half-life at 1 µM in series [1] came to 15 min. The midpoint of inhibition in the series with Platelet [2], the IC50, lay at 2.8 nM. Besides, the inhibition at 20 µM with Platelet [3] stood at 79.9%.
As for `COc1nn2cc(-c3cc4c(OCc5csc(-c6ccc(C(=O)N(C)C)cc6)n5)cc5c(c4o3)OCCO5)nc2s1`, in series [1], the half-life at 1 µM was 55.8 min. Moreover, the inhibition at 20 µM in the series with Platelet [3] was 80.8%.
For the compound `COc1nn2cc(-c3cc4ccc5c(c4o3)OCCCO5)nc2s1`, the half-life at 1 µM in series [1] stood at 18.4 min. The compound also returned an IC50 in the series with Platelet [2] of 17.1 nM. Moreover, in the series with Platelet [3], the inhibition at 20 µM was determined as 76.8%.
Taken in the same sequence, the figures for `Cc1ccc2nc(-c3cc4ccc5c(c4o3)OCCO5)cn2n1` were 10.6 min, 10.8 nM and 85%.
`COc1nn2cc(-c3cc4c5c(ccc4o3)OCCO5)nc2s1`: the inhibition at 20 µM in the series with Platelet [3] came to 18.4%.
The same measure, in the same setting: next, `COCCCc1cc2c(c3oc(-c4cn5nc(OC)sc5n4)cc13)OCCO2`: 4.17%.
Still for that read-out and setting: next, `COc1nn2cc(-c3cc4c(OCCN5CCS(=O)(=O)CC5)cc5c(c4o3)OCCO5)nc2s1`: -4.63%.
The same measure, in the same setting: next, `COc1nn2cc(-c3cc4ccc5c(c4o3)C=CC(C)(C)O5)nc2s1`: 2.58%.
In the case of `COc1nn2cc(-c3cc4c(OCc5nc(N6CCOCC6)sc5C)cc5c(c4o3)OCCO5)nc2s1`, in series [1], the half-life at 1 µM is 14.8 min. This compound also registered an IC50 in the series on Platelet [2] of 9.2 nM. In the series with Platelet [3], the inhibition at 20 µM amounted to 85.2%.
With `CSc1nn2cc(-c3cc4ccc5c(c4o3)OCCOCCO5)nc2s1`, the inhibition at 20 µM in the series with Platelet [3] was -1.3%.
As to `COc1ccc2nc(-c3cc4ccc5c(c4o3)OCCO5)cn2n1`, the inhibition at 20 µM with Platelet [3] was 0%.
For the compound `COc1nn2cc(-c3cc4c(OCC(=O)N5CCC(F)(F)CC5)cc5c(c4o3)OCCO5)nc2s1`, the half-life at 1 µM in series [1] is 16.1 min. Moreover, in the series on Platelet [3], the inhibition at 20 µM was 75.4%.
